Test results published in US11596151B2, “Compositions for the protection of agrarian crops and use thereof” (priority 2017, dated 2023).

Assay: Solubility of fluindapyr in test solvent at 140 g/L, crystal growth check after one week at 0° C.
Format: physicochemical
Design: key: PASS: A solution without crystal growth under the storage condition was considered a Pass
Experimental: In order to test the solubility of an active ingredient comprising an aminoindane amide active compound, fluindapyr was added into a test solvent at the concentration of 140 g/L under sufficient agitation. The test solvents were selected based on Hansen Solubility Parameters with a Relative Energy Difference (RED) of between 0.7 and 1.6. The completed dissolved solutions were further stored for one week at 0° C. to check if any crystals grew or not under the storage condition.

- Dissolution (solvent 2-ethylhexanol): FAIL
- Dissolution (solvent N,N-dimethyldecanamide): PASS
- Dissolution (solvent N-butyl acetate): FAIL
- Dissolution (solvent N-heptane): FAIL
- Dissolution (solvent O-dichlorobenzene): FAIL
- Dissolution (solvent POWERBLOX SV-17): FAIL
- Dissolution (solvent acetonitrile): FAIL
- Dissolution (solvent dibutyl ether): FAIL
- Dissolution (solvent diethylene glycol monoethyl ether): PASS
- Dissolution (solvent diethylene glycol monomethyl ether): PASS
- Dissolution (solvent diethylene glycol n-butyl ether acetate): FAIL
- Dissolution (solvent diisobutyl ketone): FAIL
- Dissolution (solvent dimethyl formamide): FAIL
- Dissolution (solvent dipropylene glycol methyl ether acetate): FAIL
- Dissolution (solvent dipropylene glycol n-butyl ether): FAIL
- Dissolution (solvent dipropylene glycol n-propyl ether): FAIL
- Dissolution (solvent dipropyleneglycol phenyl ether): FAIL
- Dissolution (solvent ethoxytriglycol): FAIL
- Dissolution (solvent ethylene glycol monobutyl ether): FAIL
- Dissolution (solvent ethylene glycol n-butyl ether acetate): FAIL
- Dissolution (solvent ethylene glycol phenyl ether): FAIL
- Dissolution (solvent isobutyl heptyl ketone): FAIL
- Dissolution (solvent methyl alcohol): FAIL
- Dissolution (solvent methyl ethyl ketone): FAIL
- Dissolution (solvent methyl isobutyl ketone): FAIL
- Dissolution (solvent perchloroethylene): FAIL
- Dissolution (solvent propylene carbonate): FAIL
- Dissolution (solvent propylene glycol): FAIL
- Dissolution (solvent propylene glycol diacetate): FAIL
- Dissolution (solvent propylene glycol monomethyl ether acetate): FAIL
- Dissolution (solvent propylene glycol n-butyl ether): FAIL
- Dissolution (solvent propylene glycol phenyl ether): FAIL
- Dissolution (solvent tetrahydrofuran): FAIL
- Dissolution (solvent toluene): FAIL
- Dissolution (solvent tripropylene glycol n-butyl ether): FAIL
Compound: CC1CC(C)(C)c2c(F)ccc(NC(=O)c3cn(C)nc3C(F)F)c21 (centres unmarked) [fluindapyr]
